Values joined by “and” are separate entries in the source; they are usually repeats but may differ in a detail not shown here. Equal values may be shown once.
Tests used:
Ki67 = experiment: Immunohistochemistry of end-point KPC tumors: proliferating cells; format: in vivo, mouse; settings: KPC tumors at end point
Experimental: (§1) All tissues or matrices, including patient TMAs, were fixed in 10% buffered formalin and embedded in paraffin. The 4-μm sections of samples were deparaffinized with xylene and rehydrated in graded ethanol washes. For immunohistochemistry, Bond Dewax Solution (AR9222) was used. Antigen retrieval was performed using Bond RX H2(30) protocol: HIER 30 min ER1 (citrate pH 6) OR ER2 (EDTA pH 9) at 100 °C. Slides were quenched in BOND Polymer Refine Detection (Leica Biosystems DS9800). […] Slides were digitized on an Aperio slide scanner and representative areas per tumor acquired and analyzed by researchers blinded to the conditions of the experiment.
(§2) Extended Data Fig. 6 PXS-5505 in combination with gemcitabine in a KPC model. a. Quantification of proliferating cells (Ki67 positive nuclear staining) in KPC tumors at end point, treated as indicated. 5 fields of view (500 μm × 500 μm) per mouse and 10 mice per cohort were scored. […] Quantification of percent coverage of αSMA positive staining in KPC tumors at end point, treated as indicated. 3 fields of view (1000 μm × 1000 μm) per mouse and 10 mice per cohort were scored. […] Quantification of percent coverage of PDGFR-ß positive staining in KPC tumors at end point, treated as indicated. 3 fields of view (1000 μm × 1000 μm) per mouse and 10 mice per cohort were scored. […] 3 fields of view (500 μm × 500 μm) per mouse and 10 mice per cohort were scored. […]

[1] = Preclinical genotoxicity and toxicity studies; format: in vivo
CD8 = experiment: Immunohistochemistry of end-point KPC tumors: T-cell infiltration; format: in vivo, mouse; settings: KPC tumours at endpoint; individual replicate values (Extended Data 6I)
Experimental: as §1, §2

[2] = system: standard panel of macromolecular targets; experiment: Eurofins SafetyScreen44 off-target panel (enzyme and radioligand-binding assays); settings: 30 µM
Excerpt: To increase specificity for the lysyl oxidase family, the design of PXS-5505 (Supplementary Data 1–3) was based upon substrate analog fluoroallylamines. Variants of fluoroallylamines have previously been used in amine oxidase inhibitors, including those targeting LOXL2 and LOXL3 (ref. [31]). […] Importantly, PXS-5505 not only maintains the potent functional inhibition of LOXL2 but linkage to a quinoline moiety improves potency for all other lysyl oxidase family members and is key to the superiority of PXS-5505 (Fig. 2a). PXS-5505 is the free base of the active principle, which is suitably isolated as a dihydrochloride salt.

| Compound | Ki67 positive tumor cells (Ki67) | tolerability in preclinical toxicity studies ([1]; 6 months) | preclinical development including genotoxicity and toxicity studies ([1]; in vivo) | T-cell infiltration (CD8 positive staining) (CD8) | off-target activity against a standard panel of macromolecular targets [2] |
| --- | --- | --- | --- | --- | --- |
| Nc1ccn([C@@H]2O[C@H](CO)[C@@H](O)C2(F)F)c(=O)n1 [Gem, gemcitabine] | significantly decreasing the number of Ki67 positive tumor cells | – | – | – | – |
| Cl.Cl.NC/C=C(\F)CS(=O)(=O)c1cccc2cccnc12.O [PXS-5505, (Z)-3-fluoro-4-(quinolin-8-ylsulfonyl)but-2-en-1-amine dihydrochloride monohydrate] | – | well tolerated | successfully passed | 7 and 5 | does not show any significant off-target activity |

Reference: paper PMC10518255, “A first-in-class pan-lysyl oxidase inhibitor impairs stromal remodeling and enhances gemcitabine response and survival in pancreatic cancer” (Nature Cancer, 2023)
